The values below are quoted from earlier work in patent US11168056B2, “Process for the manufacturing of (6aR,10aR)-7-propyl-6,6a,7,8,9,10,10a,11-octahydro-[1,3]dioxolo[4′,5′:5,6]benzo[1,2-G]quinoline and (4aR,10aR)-1-propyl-1,2,3,4,4a,5,10,10a-octahydro-benzo[G]quinoline-6,7-diol” (H. Lundbeck A/S, priority 2019, dated 2021).

The test system of series [1] is animal models relevant for Parkinson's Disease. The note with it: various animal models.
For series [2] the following is noted: rats.
The conditions of series [3]: man, after oral dosing.
For series [4], the system named is PD patients. The note with it: intravenous (IV).
The conditions of series [5]: rats. The source holds these as a separate data set.
The subject of series [6] is rat hepatocytes.
Series [7] relates to human hepatocytes.

Where two headings read alike, the source gives them in different places.

As to `CCCN1CCC[C@@H]2CC3=C(CCCC3=O)C[C@H]21` [(Ia)], the “efficacy in animal models relevant for Parkinson's Disease” value (“efficacy in animal models relevant” for short) in series [1] was “effective”. The “conversion to the active compound (I)” value in series [2] is “converted to the active compound (I)”.

For the compound `CCCc1cc2c(s1)CN[C@@H]1CCc3cc(OC(C)=O)c(OC(C)=O)cc3[C@@H]21` [Adrogolide], in series [3], the hepatic first-pass metabolism result is reported as “extensive” and the oral bioavailability is around 4%. Also, the antiparkinson efficacy result in series [4] was “comparable to that of L-DOPA”.

In the case of `CCCN1CCC[C@@H]2Cc3c(ccc(O)c3O)C[C@H]21` [compound (I), (4aR,10aR)-1-propyl-1,2,3,4,4a,5,10,10a-octahydro-benzo[g]quinoline-6,7-diol], the oral bioavailability entry in series [5] is listed as “low”. Further, the “efficacy in animal models relevant” value in series [1] is reported as “effective”.

For the compound `CCCN1CCC[C@@H]2Cc3c(ccc4c3OCO4)C[C@H]21` [compound (Ib), (6aR,10aR)-7-propyl-6,6a,7,8,9,10,10a,11-octahydro-[1,3]dioxolo[4′,5′:5,6]benzo[1,2-g]quinoline], the “conversion of compound (Ib) to compound (I)” value in series [6] and in series [7] was “demonstrated” in each case. In addition, in series [1], the “efficacy in animal models relevant” value is “effective”.
